Laboratory results taken from US6297274A, “Nonpeptide endothelin antagonists with increased water solubility” (priority 1998, dated 2001).
Where a name gives a salt, the structure may show the parent alone. Read-outs that look alike come from different tables or passages of the source.

Columns and labels:
[1] = target: T1, human ETA R (Homo sapiens, UniProt P25101); test: biochemical; format: binding; conditions: read-out: HERBA-A IC50
T1 sequence (P25101 21-427): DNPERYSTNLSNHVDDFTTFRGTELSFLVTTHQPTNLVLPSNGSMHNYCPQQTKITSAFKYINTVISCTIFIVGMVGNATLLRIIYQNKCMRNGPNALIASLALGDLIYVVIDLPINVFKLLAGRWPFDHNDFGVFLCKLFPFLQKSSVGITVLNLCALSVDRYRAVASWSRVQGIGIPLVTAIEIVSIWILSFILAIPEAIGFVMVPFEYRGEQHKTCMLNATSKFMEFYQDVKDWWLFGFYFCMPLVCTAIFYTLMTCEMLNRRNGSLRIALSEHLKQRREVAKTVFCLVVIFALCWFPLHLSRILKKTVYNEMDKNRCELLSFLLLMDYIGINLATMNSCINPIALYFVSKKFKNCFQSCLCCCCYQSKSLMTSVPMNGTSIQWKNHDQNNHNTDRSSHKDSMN
Protocol: (§1) The following cultured cells were used in binding experiments: CHO-K1 cells expressing recombinant human ETB R (HERBA B), or Ltk-cells expressing human ETA R (HERBA A). […] Membranes were prepared from cultured cells by lysing cells in cold lysis buffer (5 mM HEPES, 2 mM EDTA, pH 7.4) and homogenizing with a Dounce "A" homogenizer. […] Radioligand and competing ligands were prepared in binding buffer containing 20 mM Tris, 2 mM EDTA, and 0.1% BSA.
(§2) The assay was terminated by filtration over Whatman GF/B filters that were presoaked with 50 mM Tris, pH 7.4, containing 0.2% BSA and 100 μM bacitracin. […] binding was defined as total binding minus nonspecific binding.

[2] = target: T2, recombinant human ETB R (Homo sapiens, UniProt P24530); test: biochemical; format: binding; conditions: read-out: HERBA-B IC50
T2 sequence (P24530 27-442): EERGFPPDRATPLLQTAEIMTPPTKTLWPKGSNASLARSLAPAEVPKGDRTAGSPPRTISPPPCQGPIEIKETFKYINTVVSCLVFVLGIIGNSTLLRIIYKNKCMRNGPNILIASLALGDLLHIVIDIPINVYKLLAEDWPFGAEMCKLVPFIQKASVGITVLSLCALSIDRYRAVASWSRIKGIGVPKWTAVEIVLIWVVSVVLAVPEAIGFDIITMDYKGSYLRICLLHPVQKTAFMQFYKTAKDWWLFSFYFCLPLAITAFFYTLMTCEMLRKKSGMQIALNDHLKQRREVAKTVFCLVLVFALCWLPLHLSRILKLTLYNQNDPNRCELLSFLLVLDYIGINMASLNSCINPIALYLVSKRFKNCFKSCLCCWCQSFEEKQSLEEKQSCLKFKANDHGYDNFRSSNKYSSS
Protocol: as §1, §2

[3] = physchem; conditions: water
[4] = tested on: rat hypoxia model of hypertension; conditions: cited from earlier work
[5] = tested on: cerebral hemisphere of cats following middle cerebral artery occlusion; conditions: IV; cited from earlier work
[6] = tested on: ischemic brain injury in rats; conditions: oral; cited from earlier work
[7] = target: T3, ET-1 stimulated vasoconstriction, rabbit femoral artery (Oryctolagus cuniculus, UniProt A5A8K3); conditions: read-out: VERA-A pA2 (converted)
T3 sequence (A5A8K3 21-427): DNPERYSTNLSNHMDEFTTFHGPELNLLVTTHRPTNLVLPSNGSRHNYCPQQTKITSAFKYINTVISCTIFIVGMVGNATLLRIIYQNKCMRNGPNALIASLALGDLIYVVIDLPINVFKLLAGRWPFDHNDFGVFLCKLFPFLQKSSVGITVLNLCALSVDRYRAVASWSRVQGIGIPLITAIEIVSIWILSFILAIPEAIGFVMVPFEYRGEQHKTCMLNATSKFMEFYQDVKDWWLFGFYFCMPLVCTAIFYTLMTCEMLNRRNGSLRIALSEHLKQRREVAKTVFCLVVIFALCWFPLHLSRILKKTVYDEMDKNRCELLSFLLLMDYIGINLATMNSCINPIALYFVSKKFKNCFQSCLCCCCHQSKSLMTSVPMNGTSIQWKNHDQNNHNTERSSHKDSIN
Source text: In vitro and in vivo studies with a series of hexapeptide endothelin antagonists. J. Cardiovasc. […] The data are presented as pA2 values.

[8] = human cloned receptor ETA, [125I]-ET-1 (40 pM), 2 hours, 37 °C
[9] = human cloned receptor ETB, [125I]-ET-1 (40 pM), 2 hours, 37 °C

IC50 [1, 8]	IC50 [2, 9]	SMILES	further results
40 nM	17000 nM	COc1cc(CC2=C(c3ccc4c(c3)OCO4)C(=O)OC2(O)c2ccc(OCCCN(C)C)cc2)cc(OC)c1OC (stereo not shown) [Example 29, 3-Benzo[1,3]dioxol-5-yl-5-[4-(3-dimethylamino-propoxy)-phenyl]-5-hydroxy-4-(3,4,5-trimethoxy-benzyl)-5H-furan-2-one]	
1 nM	800 nM	COc1ccc(C2(O)OC(=O)C(c3ccc4c(c3)OCO4)=C2Cc2cc(OC)c(OC)c(OC)c2)c(OCCCN(C)C)c1 (stereo not shown) [Example 38, 3Benzo[1,3]dioxol-5-yl-5-[2-(3-dimethylamino-propoxy)-4-methoxy-phenyl]-5-hydroxy-4-(3,4,5-trimethoxy-benzyl)-5H-furan-2-one]	Kb [7]: 100 nM
180 nM	> 2500 nM	COc1cc(CC2=C(c3ccc4c(c3)OCO4)C(=O)OC2(O)c2ccc(OCCCN(C)C)cc2)cc(OC)c1OC (stereo not shown) [Example 30, 3-Benzo[1,3]dioxol-5-yl-5-[4-(3-dimethylamino-propoxy)-phenyl]-5-hydroxy-4-(3,4,5-trimethoxy-benzyl)-5H-furan-2-one 2-hydroxyethanesulfonate]	
14 nM	3350 nM	COc1cc(CC2=C(c3ccc4c(c3)OCO4)C(=O)OC2(O)c2ccc(OCCN3CCOCC3)cc2)cc(OC)c1OC (stereo not shown) [Example 27, 3-Benzo[1,3]dioxol-5-yl-5-hydroxy-5-[4-(2-morpholin-4-ethoxy)-phenyl]-4-(3,4,5-trimethoxy-benzyl)-5H-furan-2-one]	
	4100 nM	COc1cc(CC2=C(c3ccc4c(c3)OCO4)C(=O)OC2(O)c2ccc(OCCN3CCOCC3)cc2)cc(OC)c1OC (stereo not shown) [Example 28, 3-Benzo[1,3]dioxol-5-yl-5-hydroxy-5-[4-(2-morpholin-4-yl-ethoxy)-phenyl]-4-(3,4,5-trimethoxy-benzyl)-5H-furan-2-one 2-hydroxyethanesulfonate]	IC50 [1]: 12 nM

Second part, the molecule before the results:

SMILES	IC50 [1, 8]	IC50 [2, 9]	further results
CNc1cccc(CC2=C(c3ccc4c(c3)OCO4)C(=O)OC2(O)c2ccc(OC)cc2)c1 (stereo not shown) [Example 31, 3-Benzo[1,3]dioxol-5-yl-5-hydroxy-5-(4-methoxy-phenyl)-4-(3-methylamino-benzyl)-5H-furan-2-one]	2 nM	2700 nM	
COc1ccc(C2(O)OC(=O)C(c3cc(OC)cc(OC)c3)=C2Cc2cc(OC)c(OC)c(OCCCN3CCN(C)CC3)c2)cc1 (stereo not shown) [Example 17, 4-{3,4-Dimethoxy-5-[3-(4-methyl-piperazzin-1-yl)-propoxy]-benzyl}-3-(3,5-dimethoxy-phenyl)-5-hydroxy-5-(4-methoxy-phenyl)-5-hydroxy-5-(4-methoxy-phenyl)-5H-furan-2-one]	12.5 nM	> 2500 nM	
COc1ccc(C2(O)OC(=O)C(c3cc(OC)c4c(c3)OCO4)=C2Cc2cccc(CN(C)C)c2)cc1 (stereo not shown) [Example 34, 4-(3-Dimethylaminomethyl-benzyl)-5-hydroxy-3-(7-methoxy-benzo[1,3]dioxol-5-yl)-5-(4-methoxy-phenyl)-5H-furan-2-one]	0.6 nM	110 nM	
COc1ccc(C2(O)OC(=O)C(c3cc(OC)c4c(c3)OCO4)=C2Cc2cccc(CN(C)C)c2)cc1 (stereo not shown) [Example 35, 4-(3-Dimethylaminomethyl-benzyl)-5-hydroxy-3-(7-methoxy-benzo[1,3]dioxol-5-yl)-5-(4-methoxy-phenyl)-5H-furan-2-one 2-hydroxyethanesulfonate]	1 nM	210 nM	
COc1ccc(C2(O)OC(=O)C(c3ccc4c(c3)OCO4)=C2Cc2cc(OC)c(OC)c(OCCCS(=O)(=O)O)c2)cc1 (stereo not shown) [Example 26]			solubility [3]: > 80 mg/mL
COc1ccc(C2(O)OC(=O)C(c3ccc4c(c3)OCO4)=C2Cc2cc(OC)c(OC)c(OC)c2)cc1 (stereo not shown) [PD 156707]			pulmonary vascular resistance and pulmonary arterial pressure [4]: provide protection in a rat hypoxia model of hypertension by lowering the increase in pulmonary vascular resistance and pulmonary arterial pressure; volume of ischemic damage in the cerebral hemisphere [5]: significantly reduced
CCCOc1ccc2c(c1)[C@@H](c1ccc(OC)cc1OCCO)[C@H](C(=O)O)[C@H]2c1ccc2c(c1)OCO2 [SB 217242]			reduction of ischemic brain injury [6]: Reduction of ischemic brain injury in rats was also demonstrated
COc1ccc(C2(O)OC(=O)C(c3ccc4c(c3)OCO4)=C2Cc2cccc(CN(C)C)c2)cc1 (stereo not shown) [Example 32]	4 nM	900 nM	
COc1ccc(C2(O)OC(=O)C(c3ccc4c(c3)OCO4)=C2Cc2cc(OC)c(OC)c(OCCN(C)C)c2)cc1 (stereo not shown) [Example 11, 3-Benzo[1,3]dioxyl-5-yl-4-[3-(2-dimethylamino-ethoxy)-4,5-dimethoxy-benzyl]-5-hydroxy-5-(4-methoxy-phenyl)-5H-furan-2-one 2-hydroxyethanesulfonate]			solubility [3]: > 25 mg/mL
COc1ccc(C2(O)OC(=O)C(c3ccc4c(c3)OCO4)=C2Cc2cc(OC)c(OC)c(OCC(=O)NCCN3CCOCC3)c2)cc1 (stereo not shown) [Example 3, 2-{5-[4-Benzo[1,3]dioxol-5-yl-2-hydroxy-2-(4-methoxy-phenyl)-5-oxo-2,5-dihydro-furan-3-ylmethyl]-2,3-dimethoxy-phenoxy}-N-(2-morpholin-4-yl-ethyl)-acetamide]	2 nM	> 2500 nM	
COc1ccc(C2(O)OC(=O)C(c3ccc4c(c3)OCO4)=C2Cc2cccc(CN(C)C)c2)cc1 (stereo not shown) [Example 33, 3-Benzo[1,3]dioxol-5-yl-4-(3-dimethylaminomethyl-benzyl)-5-hydroxy-5-(4-methoxy-phenyl)-5H-furan-2-one 2-hydroxyethanesulfonate]	1.2 nM	470 nM	Kb ([7]; ET-1 stimulated vasoconstriction, rabbit femoral artery): 200 nM
COc1ccc(C2(O)OC(=O)C(c3ccc4c(c3)OCO4)=C2Cc2cc(OC)c(OC)c(OCCN3CCOCC3)c2)cc1 (stereo not shown) [Example 37, 3-Benzo[1,3]dioxol-5-yl-4-[3,4-dimethoxy-5-(2-morpholin-4-yl-ethoxy)-benzyl]-5-hydroxy-(4-methoxy-phenyl)-5-furan-2-one 2-hydroxyethanesulfonate]			solubility [3]: > 25 mg/mL
COc1ccc(C2(O)OC(=O)C(c3ccc4c(c3)OCO4)=C2Cc2cc(OC)c(OCCN3CCOCC3)c(OCCN3CCOCC3)c2)cc1 (stereo not shown) [Example 9, 3-Benzo[1,3]dioxol-5-yl-5-hydroxy-4-[3-methoxy-4,5-bis-(2-morpholin-4-yl-ethoxy)-benzyl]-5(4-methoxy-phenyl)-5H-furan-2-one 2-hydroxyethanesulfonate]	180 nM	> 25000 nM	
COc1ccc(C2(O)OC(=O)C(c3ccc4c(c3)OCO4)=C2Cc2cc(OC)c(OC)c(OCC(=O)NCCN3CCOCC3)c2)cc1 (stereo not shown) [Example 4]	1 nM		Kb [7]: 100 nM
COc1ccc(C2(O)OC(=O)C(c3cc(OC)cc(OC)c3)=C2Cc2cc(OC)c(OC)c(OCCN(C)C)c2)cc1 (stereo not shown) [Example 16]	2 nM	> 2500 nM	
COc1ccc(C(=O)C(Cc2cccc(CN(C)C)c2)=C(C(=O)O)c2cc(OC)c3c(c2)OCO3)cc1 [sodium salt]			IC50 [1]: 2 nM; IC50 [2]: 300 nM
